From patent publication US20180155757A1, “IDENTIFICATION OF BACTERIA THAT ARE RESISTANT TO CARBAPENEMS BY MEMBRANE IMPERVIOUSNESS” (BIOMÉRIEUX, priority 2015, published 2018)
Like-named read-outs stand apart in the source and are kept apart here.

Assays:
Assay in all cases: Etest MIC of indicator carbapenems on MH II agar without/with PMBN
Format in all cases: cell-based
[1] = tested on: E. cloacae 1204052 (membrane impermeability)
Summary of the method: (§1)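 Etest imipenem/ertapenem/meropenem (IM 32, ETP 32, MP 32). Medium: MH II agar, PMBN 0 to ⅕ MIC. Inoculum: 0.5 McFarland, 0.85% NaCl, swabbed. Read: 16–20 h at 35° C.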

[2] = tested on: K. pneumoniae 1204039 (membrane impermeability)
Summary of the method: as §1

[3] = tested on: Enterobacter aerogenes EA 5 (porin−); details: Klebsiella aerogenes, E. aerogenes EA 5 (porin−)
Summary of the method: as §1

[4] = tested on: K. pneumoniae 1108003 (KPC-3 producer)
Summary of the method: as §1

[5] = tested on: E. coli 1008078 (VIM producer)
Summary of the method: as §1

[6] = tested on: Enterobacter aerogenes EA 27 (porin−); details: Klebsiella aerogenes, E. aerogenes EA 27 (porin−), read-out: MIC
Summary of the method: as §1

[7] = tested on: E. aerogenes 1204050 (membrane impermeability); details: in µg/mL
Summary of the method: as §1

[8] = tested on: K. pneumoniae 1012142 (KPC-2 producer)
Summary of the method: as §1

[9] = tested on: E. cloacae 1204153 (membrane impermeability); details: in µg/mL
Summary of the method: as §1

[10] = tested on: E. cloacae 1204058 (membrane impermeability); details: in µg/mL
Summary of the method: as §1

[11] = tested on: K. pneumoniae 1204035 (membrane impermeability); details: in µg/mL
Summary of the method: as §1

[12] = tested on: E. cloacae 1204056 (membrane impermeability)
Summary of the method: as §1

[13] = tested on: E. cloacae 1204053 (membrane impermeability)
Summary of the method: as §1

[14] = tested on: E. coli SAB 108 (porin−); details: Escherichia coli
Summary of the method: as §1

[15] = tested on: E. cloacae 1204051 (membrane impermeability)
Summary of the method: as §1

[16] = tested on: E. coli SAB 100 (porin−); details: Escherichia coli
Summary of the method: as §1

[17] = tested on: K. pneumoniae 1103183 (NDM producer)
Summary of the method: as §1

`C[C@@H](O)[C@H]1C(=O)N2C(C(=O)O)=C(S[C@@H]3CN[C@H](C(=O)N(C)C)C3)[C@H](C)[C@H]12` [MP, meropenem] was tested, and the MIC ([1]; [PMBN] 0, Table 4a) was 6 µg/mL, the MIC ([1]; [PMBN] 100, Table 4a) was 0.75 µg/mL and the MIC ([1]; [PMBN] 200, Table 4a) was 1.5 µg/mL. The MIC ([1]; [PMBN] 300, Table 4a) was 0.5 µg/mL, the MIC ([2]; [PMBN] 0, Table 4a) was 0.75 µg/mL and the MIC ([2]; [PMBN] 100, Table 4a) was 0.5 µg/mL. For the same molecule, the MIC ([2]; [PMBN] 200, Table 4a) was 0.38 µg/mL, the MIC ([2]; [PMBN] 300, Table 4a) was 0.38 µg/mL and the MIC ([3]; [PMBN] 0, Table 4) was 3 µg/mL. It also gave an MIC ([3]; [PMBN] 50 μg/ml) of 2 µg/mL, an MIC ([3]; [PMBN] 100 μg/ml) of 1.5 µg/mL and an MIC ([3]; [PMBN] 150 μg/ml) of 0.75 µg/mL. The MIC ([3]; [PMBN] 200 μg/ml) was 0.75 µg/mL, the MIC ([4]; [PMBN] 0, Table 4a) was 6 µg/mL and the MIC ([4]; [PMBN] 100, Table 4a) was > 32 µg/mL. For the same molecule, the MIC ([4]; [PMBN] 200, Table 4a) was > 32 µg/mL, the MIC ([4]; [PMBN] 300, Table 4a) was 4 µg/mL and the MIC ([5]; [PMBN] 0, Table 4a) was 0.5 µg/mL. The MIC ([5]; [PMBN] 100, Table 4a) was 0.5 µg/mL, the MIC ([5]; [PMBN] 200, Table 4a) was 0.25 µg/mL and the MIC ([5]; [PMBN] 300, Table 4a) was 0.25 µg/mL. It also gave an MIC ([6]; [PMBN] 0, Table 4) of 4 µg/mL, an MIC ([6]; [PMBN] 50 μg/ml) of 0.75 µg/mL and an MIC ([6]; [PMBN] 100 μg/ml) of 0.5 µg/mL. The MIC ([6]; [PMBN] 150 μg/ml) was 0.19 µg/mL, the MIC ([6]; [PMBN] 200 μg/ml) was 0.094 µg/mL and the MIC ([7]; [PMBN] 0, Table 4a) was >32. The MIC ([7]; [PMBN] 100, Table 4a) was 2-4, the MIC ([7]; [PMBN] 200, Table 4a) was 1.5-2 and the MIC ([7]; [PMBN] 300, Table 4a) was 1. The MIC ([8]; [PMBN] 0, Table 4a) was > 32 µg/mL, the MIC ([8]; [PMBN] 100, Table 4a) was > 32 µg/mL and the MIC ([8]; [PMBN] 200, Table 4a) was > 32 µg/mL. For the same molecule, the MIC ([8]; [PMBN] 300, Table 4a) was > 32 µg/mL, the MIC ([9]; [PMBN] 0, Table 4a) was 4 and the MIC ([9]; [PMBN] 100, Table 4a) was 0.75-1. The MIC ([9]; [PMBN] 200, Table 4a) was 1, the MIC ([9]; [PMBN] 300, Table 4a) was 0.75 and the MIC ([10]; [PMBN] 0, Table 4a) was >32. For the same molecule, the MIC ([10]; [PMBN] 100, Table 4a) was 2, the MIC ([10]; [PMBN] 200, Table 4a) was 0.75 and the MIC ([10]; [PMBN] 300, Table 4a) was 0.25. For the same molecule, the MIC ([11]; [PMBN] 0, Table 4a) was 8-12, the MIC ([11]; [PMBN] 100, Table 4a) was 2 and the MIC ([11]; [PMBN] 200, Table 4a) was 1.5. For the same molecule, the MIC ([11]; [PMBN] 300, Table 4a) was 1.5, the MIC ([12]; [PMBN] 0, Table 4a) was 12 µg/mL and the MIC ([12]; [PMBN] 100, Table 4a) was 2 µg/mL. For the same molecule, the MIC ([12]; [PMBN] 200, Table 4a) was 1 µg/mL, the MIC ([12]; [PMBN] 300, Table 4a) was 0.75 µg/mL and the MIC ([13]; [PMBN] 0, Table 4a) was 4 µg/mL. The MIC ([13]; [PMBN] 100, Table 4a) was 2 µg/mL, the MIC ([13]; [PMBN] 200, Table 4a) was 2 µg/mL and the MIC ([13]; [PMBN] 300, Table 4a) was 1.5 µg/mL. For the same molecule, the MIC ([14]; [PMBN] 0) was 2 µg/mL, the MIC ([14]; [PMBN] 50 μg/ml) was 0.125 µg/mL and the MIC ([14]; [PMBN] 100 μg/ml) was 0.125 µg/mL. It also gave an MIC ([14]; [PMBN] 150 μg/ml) of 0.094 µg/mL, an MIC ([14]; [PMBN] 200 μg/ml) of 0.094 µg/mL and an MIC ([15]; [PMBN] 0, Table 4a) of 4 µg/mL. It also gave an MIC ([15]; [PMBN] 100, Table 4a) of 2 µg/mL, an MIC ([15]; [PMBN] 200, Table 4a) of 0.25 µg/mL and an MIC ([15]; [PMBN] 300, Table 4a) of 0.25 µg/mL. For the same molecule, the MIC ([16]; [PMBN] 0) was 0.125 µg/mL, the MIC ([16]; [PMBN] 50 μg/ml) was 0.094 µg/mL and the MIC ([16]; [PMBN] 100 μg/ml) was 0.047 µg/mL. For the same molecule, the MIC ([16]; [PMBN] 150 μg/ml) was 0.032 µg/mL, the MIC ([16]; [PMBN] 200 μg/ml) was 0.032 µg/mL and the MIC ([17]; [PMBN] 0, Table 4a) was > 32 µg/mL. The MIC ([17]; [PMBN] 100, Table 4a) was > 32 µg/mL, the MIC ([17]; [PMBN] 200, Table 4a) was 24 µg/mL and the MIC ([17]; [PMBN] 300, Table 4a) was > 32 µg/mL.
